Experimental data as given in patent publication US20220313769A1, “NEW ANTIOXIDANT COMPOSITION FOR WOUND HEALING” (HISTOCELL, S.L., priority 2019, published 2022).

Test system: epithelial fibroblasts
Assay: In vitro wound healing assay or scratch assay
Assay type: cell-based
Details: 0.001% lycopene compared to 5 mM NAC
Procedure: The in vitro wound healing assay or scratch assay measures the capacity of a product to stimulate cellular proliferation (epithelial fibroblasts or keratinocytes) and close a gash without cells in a cellular monolayer in the culture tissue. For the gash to be homogeneous in all the wells, the cells are seeded in wells containing silicone blocks of the same size, which prevent adhesion of the cells in the area occupied by the block. Thus, epithelial fibroblasts were seeded in 24-well plates with the silicone blocks or barriers. After incubating for 12 hours, the barriers were removed and the cells were incubated for 24-72 hours with medium that contained the components separately or combined [different concentrations of locust bean galactomannan (LBG, 0.2, 0.1 and 0.01%), lycopene (0.001%)] and acetylcysteine (NAC, 5 mM). The entire surface of the well covered by the cells or the number of cells was estimated based on the images obtained of the wells with different treatments.

CC(C)=CCC/C(C)=C/C=C/C(C)=C/C=C/C(C)=C/C=C/C=C(C)/C=C/C=C(C)/C=C/C=C(\C)CCC=C(C)C [lycopene]
Capacity of migration of the fibroblasts (FIG. 2B legend): higher capacity of migration | In vitro healing (FIG. 2B): induced in vitro healing better
